Laboratory results published in patent US20080145358A1, “Method for Determining Responsiveness to Chk1 Inhibitors” (ASTRAZENECA AB, priority 2005, published 2008).

Experiments:
[1] = test system: phospho-CHK; experiment: Western blot of phospho-CHK after DNA damaging agents in SW620 and or HT29 cells; type: cell-based; settings: titration of DNA damaging agent, 8 hour incubation
Method: Cell were then treated with a titration of DNA damaging agents (SN-38 (CQ International, China), doxorubicin (Sigma-Aldrich, MO) or gemcitabine (CQ International, China)). Cells were then harvested after an 8 hour incubation with DNA damaging agents in Onyx lysis buffer with protease and phosphatase inhibitors (20 mM Tris, 137 mM Na Cl, […], 1% Triton X, 10% glycerol, 1.5 mM MgCl2, 1:100 dilution of Calbiochem Phophatase Inhibitor Cocktail set II, 10 mM β-glycerophosphate, 1 mM DTT, 7 μg/ml PMSF, 20KIU/ml aprotinin, 1 mM Pefabloc, 0.1 mg/ml leupeptin). Protein lysates were then generated, protein concentration determined and equal protein loaded and analyzed by Western blot analysis using a 1:100 dilution of phospho-CHK rabbit monoclonal antibody (Ser 345) (133D3) acquired from Cell Signaling (Beverly, Mass.). […] To further characterize the CHK1 activation, SW620 and HT29 cells were treated with gemcitabine (100 nM) or SN38 (100 nM) and cells harvested at different times (from 30 minutes to 24 hours). […] A panel of tumor cell lines was then examined to determine how broadly in tumor cells CHK was activated and whether p53 status impacted CHK activation. The panel of cell lines were plated and treated for 8 hours with 100 nM of gemcitabine. Cell lysates were harvested and evaluated for phospho-CHK upregulation.

[2] = test system: phospho-CHK; experiment: Western blot of phospho-CHK in H460 (dominant negative p53) xenograft tumors; type: in vivo, nude rats; settings: 20 mg/kg IV
Method: 1×10^7 H460 cells expressing dominant negative p53 were injected into the right flank of male nude rats which had been irradiated with 5 Gy radiation 6 days prior to implantation. At day 20 when the tumors reached a size of […], animals were dosed IV with 20 mg/kg gemcitabine in 0.9% saline. Tumors were then harvested at varying time points including 1.5, 2, 2.5, 4, 6, 8 and 24 hours following gemcitabine dosing.

[3] = test system: phospho-CHK; experiment: Western blot of phospho-CHK in SW620 cells, gemcitabine and CHK inhibitor combination; type: cell-based; settings: 8 hours, 100 nM gemcitabine alone or 30, 100 or 500 nM CHK inhibitor alone
Method: Cell were then treated with 100 nM gemcitabine or 30 nM, 100 nM or 500 nM CHK inhibitor or a combination of 100 nM gemcitabine and 30 nM, 100 nM or 500 nM for 8 hours. One set of cells were then harvested for Western blot analysis. Media containing compounds were removed from the remaining cells and fresh tissue culture media added back.

[4] = test system: phospho-CHK; experiment: Phospho-CHK immunohistochemistry (IHC) in HeLa or A549 cells, Metamorph quantitation; type: cell-based; settings: 100 nM gemcitabine, 5 hours, FIG. 1
Method: Phospho-CHK regulation was also examined by immunohistochemistry (IHC). […] Cells were fixed with 4% PFA in PBS (8 minutes room temperature), permeabilized with 0.5% Triton-X in PBS, washed with PBS and washed with 0.05% Tween 20 in PBS. Cells were then blocked with 10% Goat serum for 1 hour at room temperature, incubated with 1:50 dilution of phospho-CHK rabbit monoclonal antibody ([MUT]) (133D3) acquired from Cell Signaling (Beverly, Mass.) in 10% goat serum for 90 minutes, washed twice with PBS and once with 05% Tween 20 in PBS. […] Phospho-CHK staining was then quantitated using Metamorph analysis (Universal Imaging Corp, Dowington, Pa.).

[5] = test system: phosphorylated CHK1; experiment: Phosphorylated CHK1 staining (H-score) of hair follicles in skin biopsies; type: in vivo, nude mice; settings: gemcitabine 30 or 60 mg/kg IV alone or Chk inhibitor 5, 20 or 40 mg/kg IV alone, seven hours
Description: Staining was specific to cell nuclei. […] Sections were then quantitated by H-score analysis.

[6] = test system: phospho-H2AX; experiment: Western blot of phospho-H2AX in SW620 and or A549 cells; type: cell-based; settings: 5 hour incubation, either compound used alone
Method: Cells were then harvested after a 5 hour incubation directly into SDS sample buffer (NuPAGE #NP007). Samples were then sonicated, passed through a 21 gauge needle, heated to 100° C. for 5 minutes, microcentrifuged and analyzed by Western blot analysis. Protein lysates were then generated, protein concentration determined and equal protein loaded and analyzed by Western blot analysis using a 1:5000 dilution of a mouse monoclonal anti-phospho H2AX […] (Upstate, N.Y.).

[7] = test system: phospho-CHK; experiment: Western blot of phospho-CHK in a panel of tumor cell lines; type: cell-based; settings: 100 nM, 8 hours
Method: Cell were then treated with a titration of DNA damaging agents (SN-38 (CQ International, China), doxorubicin (Sigma-Aldrich, MO) or gemcitabine (CQ International, China)). […] Protein lysates were then generated, protein concentration determined and equal protein loaded and analyzed by Western blot analysis using a 1:100 dilution of phospho-CHK rabbit monoclonal antibody ([MUT]) (133D3) acquired from Cell Signaling (Beverly, Mass.). […] A panel of tumor cell lines was then examined to determine how broadly in tumor cells CHK was activated and whether p53 status impacted CHK activation. The panel of cell lines were plated and treated for 8 hours with 100 nM of gemcitabine. Cell lysates were harvested and evaluated for phospho-CHK upregulation.

Row | Compound | phospho-CHK level by Western blot [1] | time of maximum activation of CHK in tumor [2] [h] | time to activation of CHK in tumor [2] [h] | phospho-CHK in tumor at 24 hours ([2]; 24 hours after dosing) | phospho-CHK level by Western blot, single agent [3] | area of phospho-CHK signal relative to nuclear area [4] | phosphorylated CHK1 staining of hair follicles, single agent [5] | phospho-H2AX by Western blot, compound alone [6] | phospho-CHK level by Western blot [7]
1 | COc1cccc2c1C(=O)c1c(O)c3c(c(O)c1C2=O)C[C@@](O)(C(=O)CO)C[C@@H]3O[C@H]1C[C@H](N)[C@H](O)[C@H](C)O1 [doxorubicin] | dose dependent up-regulation |  |  |  |  |  |  |  | 
2 | Nc1ccn([C@@H]2O[C@H](CO)[C@@H](O)C2(F)F)c(=O)n1 [gemcitabine] | dose dependent up-regulation | 8 | ≤ 2 | significantly down-regulated | increase in phospho-CHK | large increase | No staining | no change or a very modest change | upregulated in a panel of tumor cell lines, albeit to different levels
3 | CCc1c2c(nc3ccc(O)cc13)-c1cc3c(c(=O)n1C2)COC(=O)[C@]3(O)CC [SN-38] | dose dependent up-regulation |  |  |  |  |  |  |  | 
